Calls of active or inactive are those of the source.
How the values were obtained:
NS3 = NS3 (Hepatitis C virus, UniProt A3EZJ3); test: PubChem AID 2173; design: species or system Hepacivirus hominis
HeLa = test: Cytotoxicity counterscreen assay for transcriptional activators of heat shock protein 70 (Hsp70). [Related pubchem assays: 1203, 1252 ]; format: functional; conditions: Homo sapiens;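 further: cells exposed to compound for 16 hours before readout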
[1] = target: T1, Heat shock 70 kDa protein 1A (Homo sapiens, UniProt P0DMV8); test: Hsp70 inhibitors, probe displacement, primary screen, biochemical, fluorescence polarization (AID 583)
T1 sequence (P0DMV8 whole entry): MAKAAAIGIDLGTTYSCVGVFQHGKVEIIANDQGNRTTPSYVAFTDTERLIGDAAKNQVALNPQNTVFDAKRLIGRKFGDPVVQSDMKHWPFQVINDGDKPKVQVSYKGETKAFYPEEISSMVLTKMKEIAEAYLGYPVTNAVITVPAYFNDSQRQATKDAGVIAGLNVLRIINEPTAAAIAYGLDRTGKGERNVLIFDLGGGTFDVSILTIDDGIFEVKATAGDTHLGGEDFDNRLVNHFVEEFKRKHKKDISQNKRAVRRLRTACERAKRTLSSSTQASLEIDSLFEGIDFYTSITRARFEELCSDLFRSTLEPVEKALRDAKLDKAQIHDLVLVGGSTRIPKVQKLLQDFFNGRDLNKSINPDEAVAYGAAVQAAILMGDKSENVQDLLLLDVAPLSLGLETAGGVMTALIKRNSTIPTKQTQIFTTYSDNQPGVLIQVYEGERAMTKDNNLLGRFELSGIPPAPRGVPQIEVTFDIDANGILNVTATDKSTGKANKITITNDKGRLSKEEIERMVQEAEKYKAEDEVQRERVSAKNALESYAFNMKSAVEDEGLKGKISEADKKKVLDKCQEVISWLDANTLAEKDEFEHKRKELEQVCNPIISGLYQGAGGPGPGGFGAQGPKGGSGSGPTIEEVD

[2] = target: T1, Heat shock 70 kDa protein 1A; test: Hsp70 inhibitors, biochemical, TR-FRET (AID 786)
Aspartyl aminopeptidase = Aspartyl aminopeptidase (Plasmodium falciparum 3D7, UniProt Q8I2J3); test: Counterscreen for inhibitors of M1 and M17 aminopeptidases: QFRET-based biochemical high throughput dose response assay for inhibitors of the Plasmodium falciparum M18 Aspartyl Aminopeptidase (PFM18AAP). [Related PubChem assays: 1619 (Screening assay (M17LAP inhibitors).), 1445 (Screening assay (M1AAP inhibitors).)]
Sequence of Aspartyl aminopeptidase (Q8I2J3 whole entry): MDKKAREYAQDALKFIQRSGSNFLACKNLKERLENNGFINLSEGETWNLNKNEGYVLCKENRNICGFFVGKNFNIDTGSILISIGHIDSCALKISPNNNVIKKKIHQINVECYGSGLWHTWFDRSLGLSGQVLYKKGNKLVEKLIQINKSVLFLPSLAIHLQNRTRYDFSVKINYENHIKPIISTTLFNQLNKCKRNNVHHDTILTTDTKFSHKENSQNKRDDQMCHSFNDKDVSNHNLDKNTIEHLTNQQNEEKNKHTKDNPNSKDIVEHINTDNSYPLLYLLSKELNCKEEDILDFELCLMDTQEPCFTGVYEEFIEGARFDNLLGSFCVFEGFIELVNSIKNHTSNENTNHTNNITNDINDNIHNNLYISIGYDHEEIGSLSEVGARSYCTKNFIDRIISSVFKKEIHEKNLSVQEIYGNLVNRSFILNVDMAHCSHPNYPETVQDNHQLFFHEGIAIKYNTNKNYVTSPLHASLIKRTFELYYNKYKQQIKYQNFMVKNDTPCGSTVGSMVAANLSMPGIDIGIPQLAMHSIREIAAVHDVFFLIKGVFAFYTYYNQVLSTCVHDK

Aminopeptidase N = target: T2, Aminopeptidase N (Plasmodium falciparum FcB1/Columbia, UniProt O96935); test: P. falciparum M1AAP inhibitors, biochemical, fluorogenic H-Leu-NHMec substrate, 1536-well (AID 1445); design: species or system Plasmodium falciparum 3D7, 3D7
T2 sequence (O96935 whole entry): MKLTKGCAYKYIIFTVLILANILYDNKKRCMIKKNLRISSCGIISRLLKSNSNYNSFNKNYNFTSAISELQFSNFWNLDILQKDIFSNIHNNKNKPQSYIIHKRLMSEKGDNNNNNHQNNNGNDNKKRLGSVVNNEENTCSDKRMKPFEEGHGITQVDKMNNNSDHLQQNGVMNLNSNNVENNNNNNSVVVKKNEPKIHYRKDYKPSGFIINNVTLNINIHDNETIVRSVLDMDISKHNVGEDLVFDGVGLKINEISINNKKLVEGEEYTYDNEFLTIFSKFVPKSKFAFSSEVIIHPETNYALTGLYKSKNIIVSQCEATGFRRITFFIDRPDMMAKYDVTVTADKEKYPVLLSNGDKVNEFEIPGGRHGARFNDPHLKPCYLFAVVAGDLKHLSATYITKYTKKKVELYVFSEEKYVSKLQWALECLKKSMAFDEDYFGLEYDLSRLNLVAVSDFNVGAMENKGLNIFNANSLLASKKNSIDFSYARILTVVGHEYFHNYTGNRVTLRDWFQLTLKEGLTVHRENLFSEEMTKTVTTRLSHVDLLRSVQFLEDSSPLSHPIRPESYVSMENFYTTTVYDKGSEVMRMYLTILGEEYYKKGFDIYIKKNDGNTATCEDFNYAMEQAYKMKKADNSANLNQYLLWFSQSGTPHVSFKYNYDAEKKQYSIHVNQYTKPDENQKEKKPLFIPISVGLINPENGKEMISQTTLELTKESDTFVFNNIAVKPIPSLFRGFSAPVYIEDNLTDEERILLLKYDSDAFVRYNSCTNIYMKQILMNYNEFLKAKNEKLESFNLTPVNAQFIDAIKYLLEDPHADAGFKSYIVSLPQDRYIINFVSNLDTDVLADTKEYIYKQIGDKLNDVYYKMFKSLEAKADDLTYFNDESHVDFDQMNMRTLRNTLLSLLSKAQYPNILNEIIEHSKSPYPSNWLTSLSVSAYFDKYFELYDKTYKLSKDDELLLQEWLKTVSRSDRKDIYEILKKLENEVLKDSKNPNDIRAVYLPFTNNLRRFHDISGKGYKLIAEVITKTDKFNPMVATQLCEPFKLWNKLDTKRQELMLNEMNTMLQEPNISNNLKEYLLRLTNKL

Procathepsin L = Procathepsin L (Homo sapiens, UniProt P07711); test: cathepsin L inhibitors, dose response, counter-screen for M1/M17 aminopeptidase inhibitor project, biochemical, QFRET, 1536-well (AID 2214)
Sequence of Procathepsin L (P07711 whole entry): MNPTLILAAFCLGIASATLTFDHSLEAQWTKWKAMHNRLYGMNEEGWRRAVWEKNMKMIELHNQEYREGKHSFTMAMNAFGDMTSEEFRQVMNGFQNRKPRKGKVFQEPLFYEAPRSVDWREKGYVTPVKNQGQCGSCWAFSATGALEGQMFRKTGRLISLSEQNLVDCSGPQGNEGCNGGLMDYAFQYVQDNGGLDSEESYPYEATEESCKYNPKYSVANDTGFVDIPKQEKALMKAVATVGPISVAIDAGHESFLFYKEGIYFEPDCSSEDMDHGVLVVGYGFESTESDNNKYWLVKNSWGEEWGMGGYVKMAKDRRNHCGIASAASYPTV

[3] = Luminescence Cell-Based Dose Confirmation HTS to Identify Activators of 5'UTR Stem-Loop Driven Alpha-Synuclein mRNA Translation in H4 Neuroglioblastoma Cells. [Related pubchem assays: 1829 (Project Summary), 1814 (Primary HTS)]; format: functional
[4] = Luminescence Cell-Based Dose Response to Identify Activators of 5'UTR Stem-Loop Driven Prion Protein mRNA Translation in H4-C Neuroglioblastoma Cells. [Related pubchem assays: 1829 (Project Summary), 1814 (Primary HTS)]; format: functional
[5] = Luminescence Cell-Based Dose Response to Identify Activators of Luciferase Translation or Activity in H4-C Neuroglioblastoma Cells. [Related pubchem assays: 1829 (Project Summary), 1814 (Primary HTS)]; format: functional
[6] = Luminescence Cell-Based Dose Confirmation to Identify Activators of 5'UTR Stem-Loop Driven Alpha-Synuclein mRNA Translation in H4 Neuroglioblastoma Cells. [Related pubchem assays: 1829 (Project Summary), 1814 (Primary HTS)]; format: functional
H4 = test: Luminescence Cell-Based Dose Response HTS to Identify Activators of 5'UTR Stem-Loop Driven Prion Protein mRNA Translation in H4 Neuroglioblastoma Cells. [Related pubchem assays: 1829 (Project Summary), 1814 (Primary HTS)]; format: functional; conditions: Homo sapiens
Bcl-2-related protein A1 [7] = target: T3, Bcl-2-related protein A1 (Mus musculus, UniProt Q07440); test: Bfl-1 binding inhibitors, SAR follow-up, biochemical, fluorescence polarization (AID 1070)
T3 sequence (Q07440 whole entry): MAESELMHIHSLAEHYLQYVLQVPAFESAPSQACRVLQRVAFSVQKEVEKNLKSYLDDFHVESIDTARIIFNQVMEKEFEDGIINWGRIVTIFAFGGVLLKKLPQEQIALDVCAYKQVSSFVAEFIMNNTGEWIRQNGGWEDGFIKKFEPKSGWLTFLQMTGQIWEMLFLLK

Bcl-2-related protein A1 [8] = target: T3, Bcl-2-related protein A1; test: Bfl-1 inhibitors blocking BH3 peptide binding, confirmation, biochemical, TR-FRET, mouse Bfl-1 (AID 621);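 further: TR-FRET binding of GST-Bfl-1 to FITC-labelled Bid peptide via terbium antibody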
[9] = target: Glyceraldehyde-3-phosphate dehydrogenase (Homo sapiens, UniProt P04406)
Sequence of Glyceraldehyde-3-phosphate dehydrogenase (P04406 whole entry): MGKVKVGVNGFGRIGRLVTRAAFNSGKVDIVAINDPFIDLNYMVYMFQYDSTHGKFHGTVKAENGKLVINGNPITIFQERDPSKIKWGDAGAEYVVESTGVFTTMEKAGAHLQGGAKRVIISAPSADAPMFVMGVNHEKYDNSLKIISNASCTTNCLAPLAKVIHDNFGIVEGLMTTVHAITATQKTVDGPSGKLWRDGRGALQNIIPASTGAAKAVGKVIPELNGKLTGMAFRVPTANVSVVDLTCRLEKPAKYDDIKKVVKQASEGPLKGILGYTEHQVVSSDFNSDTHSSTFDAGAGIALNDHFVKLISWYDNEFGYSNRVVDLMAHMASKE

Sequence of NS3 (A3EZJ3 whole entry): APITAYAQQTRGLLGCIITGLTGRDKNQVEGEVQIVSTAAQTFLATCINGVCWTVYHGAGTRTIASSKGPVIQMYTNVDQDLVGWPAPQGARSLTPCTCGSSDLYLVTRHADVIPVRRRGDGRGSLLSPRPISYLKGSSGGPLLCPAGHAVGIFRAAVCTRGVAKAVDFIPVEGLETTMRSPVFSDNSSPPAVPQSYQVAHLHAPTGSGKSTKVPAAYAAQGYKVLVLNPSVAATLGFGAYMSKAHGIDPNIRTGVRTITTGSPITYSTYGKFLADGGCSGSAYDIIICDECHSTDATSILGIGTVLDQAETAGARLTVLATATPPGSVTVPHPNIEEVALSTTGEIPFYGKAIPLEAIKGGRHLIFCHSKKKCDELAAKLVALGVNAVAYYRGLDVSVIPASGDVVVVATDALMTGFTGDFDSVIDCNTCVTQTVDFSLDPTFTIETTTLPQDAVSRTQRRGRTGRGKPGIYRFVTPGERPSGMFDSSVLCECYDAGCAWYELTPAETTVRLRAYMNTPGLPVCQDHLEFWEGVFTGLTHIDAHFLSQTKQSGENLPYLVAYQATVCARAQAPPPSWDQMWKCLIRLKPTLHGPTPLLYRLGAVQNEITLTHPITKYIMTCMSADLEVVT

With `Nc1c(C(=O)Nc2ccccc2F)sc2nc(-c3ccco3)ccc12` as the compound, how does the IC50 (NS3) read?
Its IC50 is > 36.3 µM (not active).

With `CCOC(=O)C1(C/C(C)=N/NC(N)=O)CC(C)OC1=O` (stereo not given) as the compound, how does the CC50 (HeLa) read?
Its CC50 is > 99 µM (not active).

What does the source list for `CCOC(=O)C1CCN(C(=O)Cc2c(F)cccc2Cl)CC1`?
IC50 [1]: > 100 µM (not active); IC50 [2]: > 100 µM (not active)

With `O=C(NCc1ccco1)C1CCCN(S(=O)(=O)c2cccc3nonc23)C1` (stereo not given) as the compound, how does the IC50 (Aspartyl aminopeptidase) read?
The IC50 was > 73.5 µM (not active).

What about the IC50 (Aminopeptidase N) of the same compound?
Its IC50 is 18.6 µM (active).

And the IC50 (Procathepsin L)?
The IC50 was > 59.6 µM (not active).

With `CCc1cc2c(=O)n3c(nc2s1)-c1[nH]c2ccc(OC)cc2c1CC3` as the compound, how does the EC50 [3] read?
The EC50 was < 0.1 µM (active).

And the EC50 [4]?
Its EC50 is > 12 µM (not active).

What about the EC50 [5] of the same compound?
Its EC50 is 0.354 µM (active).

What about the EC50 [6] of the same compound?
Its EC50 is 0.498 µM (active).

And the EC50 (H4)?
The EC50 was 3.18 µM (active).

Which IC50 (Bcl-2-related protein A1 [7]) does the source give for `O=C1C(Cl)=C(N2CCN(c3cccc(C(F)(F)F)c3)CC2)C(=O)N1c1ccc(Cl)c(Cl)c1` here?
Its IC50 is > 100 µM (not active).

What about the IC50 (Bcl-2-related protein A1 [8]) of the same compound?
The IC50 was > 100 µM (not active).

What about the IC50 [9] of the same compound?
The IC50 was > 100 µM (not active).
